Values joined by “and” are separate entries in the source; they are usually repeats but may differ in a detail not shown here. Equal entries are not always repeated.
How the values were obtained:
mice = conditions: even at high treatment doses, ref Qing et al., 2019, Sun et al.; cited from earlier work
zebrafish = experiment: Arachidonic acid-induced thrombosis in zebrafish; format: in vivo; conditions: for Staining intensity of cardiac red blood cells (pixels) (mean ± se): 3 h pretreatment, arachidonic acid 1.5 h, n = 10; for Antithrombotic effect (%): vs. model group, arachidonic acid-induced thrombosis
Method: A total of 270 melanin allele mutant translucent albino strain zebrafish at 3 dpf were randomly selected, with 30 zebrafish per well in six-well plates. The concentrations of LS-102 were 6.25, 12.5, 25, 50, and 100 µg/ml, while that of AGS IV was 100 µg/ml, and the positive control drug aspirin was 25 µg/ml. After treatment with LS-102 and AGS IV for 3 h, arachidonic acid aqueous solution was administered for 1.5 h to induce a thrombosis model in zebrafish in all experimental groups except the normal group. After staining with o-anisidine, zebrafish were randomly selected from each experimental group and observed under a dissecting microscope and photographed. Data were collected to qualitatively evaluate thrombosis in zebrafish, and the intensity of cardiac erythrocyte staining (length of venous thrombus vs. number of cardiac erythrocytes) in zebrafish was analyzed and counted to establish, the preventive effect of LS-102 and AGS IV with aspirin on thrombosis in zebrafish. The formula was calculated as follows:
Thromboprophylactic effect (%) = S (drug administration group)−S (model group)/S (nomal control group)−S (model group)×100%

CC(C)(O)C1CCC(C)(C2C(O)CC3(C)C4CC(OC5OC(C(=O)O)C(O)C(O)C5O)C5C(C)(C)C(OC6OCC(O)C(O)C6O)CCC56CC46CCC23C)O1 (centres unmarked) [LS-102, astragalosidic acid]
Abnormalities or death in mice (in words) (mice): no abnormalities or death
Staining intensity of cardiac red blood cells (pixels) (mean ± se) (zebrafish; 6.25 µg/ml): 1280 pixels and 1280 ± 119 pixels
Antithrombotic effect (%) (zebrafish; 6.25 µg/ml): −13%
Staining intensity of cardiac red blood cells (pixels) (mean ± se) (zebrafish; 12.5 µg/ml): 1521 pixels and 1521 ± 72 pixels
Antithrombotic effect (%) (zebrafish; 12.5 µg/ml): 14%
Staining intensity of cardiac red blood cells (pixels) (mean ± se) (zebrafish; 25 µg/ml): 1597 pixels and 1597 ± 65 pixels
Antithrombotic effect (%) (zebrafish; 25 µg/ml): 22%
Staining intensity of cardiac red blood cells (pixels) (mean ± se) (zebrafish; 50 µg/ml): 1796 pixels and 1796 ± 54 pixels
Antithrombotic effect (%) (zebrafish; 50 µg/ml): 44%
Staining intensity of cardiac red blood cells (pixels) (mean ± se) (zebrafish; 100 µg/ml): 1950 pixels and 1950 ± 33 pixels
Antithrombotic effect (%) (zebrafish; 100 µg/ml): 61%
